# In US11007196B1, “Method for preparing composition of matter comprising fluorouracil and zinc-mercury-selenium quantum dot” (priority 2020, dated 2021):
# System: human gastric cancer MGC-803 cells
# Experimental: Pharmaceutical reagents were divided into four groups including ZnHgSe quantum dot group, DMF group, DMF-QD group and blank control group. Human gastric cancer MGC-803 cells in exponential phase were digested with trypsin, followed by addition of medium containing 10% fetal bovine serum to make a single cell suspension. The cells were seeded in a 96-well cell culture plate (100 μL of cell suspension was added to each well, containing 9×10^3 cells) and cultured in an incubator of 37° C. and 5% CO2 for 24 h until the cells adhered to the wall of the 96-well plate. Three groups of drug solutions with concentration gradients were added (ZnHgSe quantum dot gradient: 2400 μg·mL^−1, 1200 μg·mL^−1, 600 μg mL^−1, 300 μg·mL^−1, 150 μg·mL^−1, and 75 μg·mL^−1; DMF gradient: 800 μg mL^−1, 400 μg·mL^−1, 200 μg·mL^−1, 100 μg·mL^−1, 50 μg·mL^−1, and 25 μg·mL^−1; corresponding DMF-QD gradient was determined according to DMF concentration by equivalent conversion). Each group was repeated with 6 wells, with an additional zero-adjustment well and a control well. […] The absorbance value OD of each well was measured by an enzyme-linked immunosorbent detector at a wavelength of 490 nm, and the cell growth inhibition rate (IC50) was calculated. IC50 value was calculated according to the modified Karber's method: […]
substance,measurement,value
dextran-magnetic layered double hydroxide-fluorouracil [DMF],cytotoxicity per unit mass relative to quantum dots,about 2.6 times
